Measurements published in patent US11203565B2, “Ester compound and PIN1 inhibitor, inflammatory disease therapeutic, and colon cancer therapeutic in which said ester compound is used” (Hiroshima University, priority 2016, dated 2021).

Legend:
[1] = molecular target: T1, Pin1 (Homo sapiens, UniProt Q13526); experiment: Evaluation of inhibitory activity on function of Pin1: cell assay using degree of AMPK phosphorylation as index; assay type: cell-based; set-up: key to Pin1 inhibitory activity: −: Promotion of AMPK phosphorylation was not (or hardly) found.; +: Phosphorylation of AMPK was promoted, but the promotion was weaker than that by C1.; ++: Phosphorylation of AMPK was promoted to the same degree as in the case of C1.; +++: Phosphorylation of AMPK was promoted more strongly than in the case of C1; conditions: 293T cells
T1 construct: endogenous in cells; host or cells: 293T cells
Method: In order to evaluate the inhibitory activities of the compounds of the present invention synthesized in Example 2 on the function of Pin1, an assay using cells was carried out according to a method previously developed by the present inventors (Yusuke Nakatsu et al., Journal of Biological Chemistry, 2015, Vol. 290, No. 40, pp. 24255-24266), using as an index the degree of phosphorylation of AMPK (AMP-activated protein kinase), whose phosphorylation is known to be suppressed by Pin1.
Briefly, 293T cells were plated on a 24-well plate coated with collagen. Forty-eight hours later, each compound (100 μM) synthesized in the Example was added to the plate, and the plate was left to stand in an incubator for 30 minutes. Thereafter, 10 mM 2-DG was added to the plate, and, 1 hour later, each sample was collected using a buffer containing mercaptoethanol and SDS.
According to conventional methods, SDS-PAGE and blotting were carried out, and then blocking was carried out with 3% BSA for 1 hour. Thereafter, reaction was carried out at normal temperature for 1 hour with each of a pAMPK antibody (Cell signaling 1:2000, Can get signal solution 1: diluted by Toyobo) as a primary antibody, and an HRP-linked anti rabbit IgG (GE healthcare 1:4000, Can get signal solution 2: diluted by Toyobo) as a secondary antibody, to perform detection.
As a compound to be compared, C1: (R)-2-(5-(4-methoxyphenyl)-2-methylfuran-3-carboxamido)-3-(naphthalene-6-yl)propanoic acid, which is an already reported Pin1 inhibitor, was used.
In FIG. 3, “-” indicates the degree of phosphorylation of AMPK in a case where no Pin1 inhibitor was added, and “C1”, “H-30”, “H-31”, “H-32”, and “H-33” indicate the degrees of phosphorylation of AMPK in cases where the respective Pin1 inhibitors were added. […] The inhibitory activity on the function of Pin1 was rated as follows based on comparison with the degree of inhibition by C1.

[2] = tested on: model animals of ulcerative colitis (3% DSS); experiment: Therapeutic experiment using model animals of ulcerative colitis (Example 4); assay type: in vivo, C57BL6 mice; conditions: DSS mice, compound 1 mg/kg/day
Method: To C57BL6 mice of 8 weeks old, 3% DSS (dextran sulfate sodium)-containing water or water (control) was administered by allowing the mice to drink it for 7 days. For the mice to which DSS was administered, groups in which 5-ASA (compound name: 5-aminosalicylic acid; generic name: Mesalazine), which is a therapeutic agent for inflammatory bowel diseases, the compound synthesized in Example 2-7 (H-31), or the compound synthesized in Example 2-36 (H-179) was administered, and a group in which no compound was administered were provided. On Day 7 after the beginning of the administration, the body weight of each mouse was measured, and the large intestine was removed from the mouse, followed by carrying out histological study. […] In FIGS. 4(A) and (B), “normal” indicates a case where water was administered, and “DSS” indicates cases where DSS-containing water was administered. “non” indicates a case where no compound was administered, and “5-ASA”, “H-31”, and “H-179” indicate cases where the respective compounds were administered. The dose was as follows: 5-ASA, 300 mg/kg/day; H-31, 1 mg/kg/day; H-179, 1 mg/kg/day. As shown in FIG. 4(A), weight loss due to inflammation of the intestine was found in the cases where DSS was administered.

[3] = tested on: model animals of ulcerative colitis (DSS); experiment: Comparison between oral and intraperitoneal administration in DSS mice (Example 5); assay type: in vivo; conditions: 1 mg/kg/day
Method: A compound whose therapeutic effect on ulcerative colitis could be confirmed in Example 4 (H-31) was studied on the difference in its effect depending on the administration method. […] In FIGS. 5(A) and (B), “normal” indicates a case where water was administered, and “DSS” indicates cases where DSS-containing water was administered. “non” indicates a case where no compound was administered, and “H-31” indicates a case where the compound synthesized in Example 2-7 was administered.

[4] = tested on: model animals of ulcerative colitis (3% DSS); experiment: Therapeutic experiment using model animals of ulcerative colitis 2 (Example 6); assay type: in vivo, C57BL6 mice; conditions: DSS mice, 1 mg/kg/day
Method: To C57BL6 mice of 8 weeks old, 3% DSS (dextran sulfate sodium)-containing water or water (control) was administered by allowing the mice to drink it for 7 days. […] On Day 7 after the beginning of the administration, the body weight of each mouse was measured, and the large intestine was removed from the mouse, followed by carrying out histological study. […] In addition, an experiment for measuring the colon length was carried out.

[5] = tested on: Pin1 protein; experiment: Confirmation of Pin1 expression level in the intestinal tract of DSS mice (Example 7); assay type: in vivo; conditions: after 7 days of administration
Method: The expression level of Pin1 in the intestinal tract was measured for each mouse subjected to the therapeutic experiment in Example 5.
The present results also support that the compound synthesized in Example 2-7 (H-31) prevents development of ulcerative colitis.

[6] = tested on: NASH model mice; experiment: Therapeutic experiment for NASH in MCDD-fed NASH model mice (Example 8); assay type: in vivo, mice (C57BL/6J); conditions: NASH mice fed MCDD 8 weeks, intraperitoneal 2.5 mg/kg/day 3 times a week
Method: In order to test the therapeutic effect of a compound of the present invention on non-alcoholic steatohepatitis (NASH), an animal experiment using NASH model mice was carried out.
The NASH model mice (hereinafter referred to as “NASH mice”) were prepared by feeding male individuals of laboratory mice (C57BL/6J) with methionine-choline-deficient diet (MCDD) for 8 weeks to allow accumulation of fat in the liver. The animal experiment was carried out for a group in which a compound of the present invention (H-31) was intraperitoneally administered 3 times a week at 2.5 mg/kg/day during the 8 weeks of the MCDD feeding period, and a group in which no administration was carried out. In addition, in order to provide control mice, male individuals of laboratory mice (C57BL/6J) were fed with normal diet for 8 weeks.
The results of measurement of the blood AST (GOT) level and the blood ALT (GPT) level in these mice are shown in FIGS. 8(A) and (B), respectively.

[7] = tested on: colon cancer model mice; experiment: Therapeutic experiment for colon cancer in AOM/DSS colon cancer model mice (Example 9); assay type: in vivo; conditions: oral 1.25 mg/kg/day 3 times a week from Day 6, Day 89, vs control
Method: On Day 1, azoxymethane (AOM) was intraperitoneally administered at 12 mg/kg to laboratory mice. Thereafter, from Day 6, a course of 5 days of oral administration of 3% dextran sulfate sodium (DSS) and a period of 16 days without administration of DSS was repeated 4 times to prepare colon cancer model mice having cancer caused by inflammation of the large intestine. A group in which a compound of the present invention (H-31) was administered and a group without administration of the compound of the present invention (control) were provided. In the group in which the compound of the present invention (H-31) was administered, oral administration was carried out 3 times a week at 1.25 mg/kg/day from Day 6.
On Day 89, the colon cancer model mice were dissected, and the number of colon cancer developed and the tumor area per colon cancer (total tumor area/number of tumors) were measured.

T1 sequence (Q13526 whole entry): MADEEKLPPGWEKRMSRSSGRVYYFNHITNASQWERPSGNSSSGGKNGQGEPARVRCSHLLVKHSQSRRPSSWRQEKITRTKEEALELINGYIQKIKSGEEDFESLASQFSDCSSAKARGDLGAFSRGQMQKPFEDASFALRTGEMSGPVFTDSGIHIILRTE

- Pin1 inhibitory activity ([1]; compound 100 μM, 10 mM 2-DG, pAMPK immunoblot rated by comparison with C1): +++
- inhibitory activity on Pin1 (stated in words) ([1]; cell-based experiment, 100 μM): both have inhibitory activities on Pin1
Compound: O=C(O[C@H](Cc1ccc2ccccc2c1)C(=O)O)C1c2ccccc2-c2ccccc21 [Compound H-31]
- tissue damage in the large intestine (stained section) ([2]; Day 7): tissue damage in the large intestine was hardly found
- weight loss (body weight as ratio to body weight before administration) ([2]; Day 7, vs no compound): the weight loss was significantly smaller
- body weight change ([3]; intraperitoneal administration): no significant difference was found
- body weight change ([3]; oral administration): a significant decrease in the body weight change
- tissue damage in the large intestine (stained section) [4]: tissue damage in the large intestine was hardly found
- change in the colon length ([4]; vs no compound): the change in the colon length was significantly smaller
- weight loss ([4]; vs no compound): the weight loss was significantly smaller
- increase in the Pin1 protein level in the intestinal tract [5]: could be significantly ameliorated
- blood ALT (GPT) level [6]: the ALT value decreased
- blood AST (GOT) level [6]: the AST value decreased
- fibrosis of liver tissue (Azan staining) [6]: fibrosis of liver tissue was remarkably suppressed
- number of colon cancer developed [7]: no significant difference in the number of colon cancer
- tumor area per colon cancer (total tumor area/number of tumors) [7]: reduction of the tumor area could be found
